Experiments:
[1] = Inhibition of Geranylgeranyl transferase type I
[2] = target: Protein farnesyltransferase (Homo sapiens, UniProt P49354+P49356); test: Inhibition of human recombinant farnesyltransferase; type: protein-complex assay

Row | IC50 [1] | IC50 [2] | SMILES
1 | > 100 µM | 460 µM | CC(=O)O[C@H]1CC[C@]2(C)[C@H]3Cc4c(O)cc(CO)c(CO)c4O[C@@]3(C)CC[C@H]2C1(C)C
2 | > 100 µM | 7 µM | COC1OC(OC)c2c1cc(O)c1c2O[C@@]2(C)CC[C@H]3C(C)(C)[C@@H](OC(C)=O)CC[C@]3(C)[C@H]2C1 (stereo partly drawn)
3 | > 100 µM | 560 µM | CC(=O)O[C@H]1CC[C@]2(C)[C@H]3Cc4c(O)cc(C=O)c(C=O)c4O[C@@]3(C)CC[C@H]2C1(C)C
4 | > 100 µM | 13 µM | CC(=O)O[C@H]1CC[C@]2(C)[C@H]3Cc4c(O)cc5c(c4O[C@@]3(C)CC[C@H]2C1(C)C)COC5=O [KAMPANOL A]

Reference: ChEMBL document CHEMBL1130915, “Kampanols: novel Ras farnesyl-protein transferase inhibitors from Stachybotrys kampalensis” (Bioorg Med Chem Lett, 1998)
